Laboratory results taken from patent US5518735A, “Meta-substituted phenylalanine derivatives” (priority 1990, dated 1996).
Structures can show the parent of a compound that is named as a salt.

Columns and labels:
thrombin = thrombin (Bos taurus, UniProt P00735); assay: Inhibition of thrombin (dissociation constant Ki); type: biochemical
factor Xa = factor Xa (Bos taurus, UniProt P00743); assay: Inhibition of factor Xa (dissociation constant Ki); type: biochemical; details: for Ki: Tables 19-25, read-out: Ki, Factor Xa
Chain of factor Xa (P00743 234-492 limits assumed): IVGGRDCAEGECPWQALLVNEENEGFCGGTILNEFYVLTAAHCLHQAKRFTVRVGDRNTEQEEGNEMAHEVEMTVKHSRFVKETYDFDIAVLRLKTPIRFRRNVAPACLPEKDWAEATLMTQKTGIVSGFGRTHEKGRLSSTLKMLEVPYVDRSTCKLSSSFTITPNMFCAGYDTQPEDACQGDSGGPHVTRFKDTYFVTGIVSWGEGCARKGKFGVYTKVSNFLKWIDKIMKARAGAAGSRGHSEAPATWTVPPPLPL
Chain of factor Xa (P00743 41-180 partner limits assumed): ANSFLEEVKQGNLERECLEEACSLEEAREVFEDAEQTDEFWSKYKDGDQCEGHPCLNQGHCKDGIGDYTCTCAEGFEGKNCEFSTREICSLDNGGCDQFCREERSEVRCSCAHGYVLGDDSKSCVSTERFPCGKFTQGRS

in vivo = details: mouse
[1] = Plasma concentration in rats after oral administration (HPLC); details: rat
Procedure: (§1) For the pharmacokinetic characterization, the plasma concentration of selected derivatives was determined in rats after intravenous (i.v.), subcutaneous (s.c.) and peroral (p.o.) application according to the following three-step procedure:
(§2) 1. A physiological NaCl solution of the substance to be tested was submitted to high pressure liquid chromatography (HPLC) in order to determine its characteristic substance-specific retention time with the chosen test conditions.
(§3) 2. The substance to be tested was diluted in vitro in rat plasma. This solution was also submitted to HPLC to see whether the characteristic peak of the substance once again appeared at the substance-specific retention time.
(§4) 3. […] Blood samples were taken at time intervals of 15 minutes, from which plasma samples were prepared by centrifugation; those samples were also submitted to HPLC to see whether the characteristic peak of the substance appeared again at the substance-specific retention time.

[2] = Plasma concentration in rats after intravenous administration (HPLC); details: for pharmacokinetic properties: in words, compared with NAPAP
[3] = Plasma concentration in rats after subcutaneous administration (HPLC); details: rat
Procedure: as §1, §2, §3, §4

plasmin = biological target: T1, plasmin (Homo sapiens, UniProt P00747); assay: Inhibition of plasmin (Ki); type: biochemical; details: Table 26
T1 construct: trypsin and the related enzymes thrombin, plasmin, factor Xa, tPA
T1 sequence (P00747 581-810 limits assumed): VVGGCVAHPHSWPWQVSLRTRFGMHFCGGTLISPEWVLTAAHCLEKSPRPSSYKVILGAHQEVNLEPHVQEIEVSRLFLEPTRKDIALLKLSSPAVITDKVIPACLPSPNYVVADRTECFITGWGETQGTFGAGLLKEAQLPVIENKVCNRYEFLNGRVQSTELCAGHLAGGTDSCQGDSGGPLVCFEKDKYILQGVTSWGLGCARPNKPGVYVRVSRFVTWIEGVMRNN
T1 sequence (P00747 97-580 partner limits assumed): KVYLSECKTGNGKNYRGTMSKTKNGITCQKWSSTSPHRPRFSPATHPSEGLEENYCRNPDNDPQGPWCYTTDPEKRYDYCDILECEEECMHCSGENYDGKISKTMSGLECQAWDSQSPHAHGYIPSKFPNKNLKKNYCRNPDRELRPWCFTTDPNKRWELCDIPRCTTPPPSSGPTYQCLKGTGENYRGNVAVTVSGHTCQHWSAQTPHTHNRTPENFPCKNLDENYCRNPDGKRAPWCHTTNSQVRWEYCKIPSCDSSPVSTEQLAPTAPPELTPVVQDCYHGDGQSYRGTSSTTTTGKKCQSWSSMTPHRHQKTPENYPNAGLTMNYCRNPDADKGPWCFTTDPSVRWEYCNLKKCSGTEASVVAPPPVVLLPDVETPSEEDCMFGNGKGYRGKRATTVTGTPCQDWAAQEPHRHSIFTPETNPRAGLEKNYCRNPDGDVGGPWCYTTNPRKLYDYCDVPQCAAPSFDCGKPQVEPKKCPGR

factor XIIa = biological target: T2, factor XIIa (Homo sapiens, UniProt P00748); assay: Inhibition of factor XIIa (Ki); type: biochemical; details: Table 26
T2 construct: glandular kallikrein, factor XIIa and plasma kallikrein
T2 sequence (P00748 373-615 limits assumed): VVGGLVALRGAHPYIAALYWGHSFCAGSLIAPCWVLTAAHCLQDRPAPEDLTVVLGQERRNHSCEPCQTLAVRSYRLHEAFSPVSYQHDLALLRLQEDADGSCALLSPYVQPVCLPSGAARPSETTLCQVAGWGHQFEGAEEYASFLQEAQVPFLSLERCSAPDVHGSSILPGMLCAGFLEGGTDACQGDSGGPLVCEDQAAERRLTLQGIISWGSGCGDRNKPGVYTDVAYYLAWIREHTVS

tPA = tPA (Homo sapiens, UniProt P00750); assay: Inhibition of tPA (Ki); type: biochemical; details: Table 26
Chain of tPA (P00750 36-562): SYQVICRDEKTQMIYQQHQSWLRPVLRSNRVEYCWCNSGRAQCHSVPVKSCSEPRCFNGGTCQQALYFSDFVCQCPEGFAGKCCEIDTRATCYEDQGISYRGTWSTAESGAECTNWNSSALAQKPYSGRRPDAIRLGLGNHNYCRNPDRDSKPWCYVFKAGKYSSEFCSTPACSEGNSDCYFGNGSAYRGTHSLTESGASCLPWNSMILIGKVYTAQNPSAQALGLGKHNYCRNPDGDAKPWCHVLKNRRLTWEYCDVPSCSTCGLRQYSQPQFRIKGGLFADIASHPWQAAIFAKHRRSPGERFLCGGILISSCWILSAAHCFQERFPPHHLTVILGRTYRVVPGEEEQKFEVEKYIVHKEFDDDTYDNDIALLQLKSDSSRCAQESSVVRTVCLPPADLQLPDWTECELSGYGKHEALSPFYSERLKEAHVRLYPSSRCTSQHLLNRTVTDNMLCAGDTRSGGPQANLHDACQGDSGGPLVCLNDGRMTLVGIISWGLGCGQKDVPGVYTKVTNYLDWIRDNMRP

glandular kallikrein = glandular kallikrein (Sus scrofa, UniProt P00752); assay: Inhibition of glandular kallikrein (Ki); type: biochemical; details: Table 26; read-out: Ki, Gland. Kallikrein
Chain of glandular kallikrein (P00752 8-246): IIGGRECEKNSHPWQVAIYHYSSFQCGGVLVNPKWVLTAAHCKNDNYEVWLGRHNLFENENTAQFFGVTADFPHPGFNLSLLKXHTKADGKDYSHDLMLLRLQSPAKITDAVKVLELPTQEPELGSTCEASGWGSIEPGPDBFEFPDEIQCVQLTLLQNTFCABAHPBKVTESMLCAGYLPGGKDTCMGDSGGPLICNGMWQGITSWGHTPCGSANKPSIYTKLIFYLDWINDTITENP

plasma kallikrein = biological target: T3, plasma kallikrein (Homo sapiens, UniProt P03952); assay: Inhibition of plasma kallikrein (Ki); type: biochemical; details: Table 26
T3 construct: glandular kallikrein, factor XIIa and plasma kallikrein
T3 sequence (P03952 391-638 limits assumed, species assumed): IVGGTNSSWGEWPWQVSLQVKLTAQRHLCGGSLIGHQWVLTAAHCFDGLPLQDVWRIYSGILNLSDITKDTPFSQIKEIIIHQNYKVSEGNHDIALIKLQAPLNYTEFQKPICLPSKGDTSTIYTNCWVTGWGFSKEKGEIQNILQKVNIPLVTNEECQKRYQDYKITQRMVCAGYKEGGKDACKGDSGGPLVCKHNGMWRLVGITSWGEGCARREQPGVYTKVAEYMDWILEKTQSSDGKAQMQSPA
T3 sequence (P03952 20-390 partner limits assumed, species assumed): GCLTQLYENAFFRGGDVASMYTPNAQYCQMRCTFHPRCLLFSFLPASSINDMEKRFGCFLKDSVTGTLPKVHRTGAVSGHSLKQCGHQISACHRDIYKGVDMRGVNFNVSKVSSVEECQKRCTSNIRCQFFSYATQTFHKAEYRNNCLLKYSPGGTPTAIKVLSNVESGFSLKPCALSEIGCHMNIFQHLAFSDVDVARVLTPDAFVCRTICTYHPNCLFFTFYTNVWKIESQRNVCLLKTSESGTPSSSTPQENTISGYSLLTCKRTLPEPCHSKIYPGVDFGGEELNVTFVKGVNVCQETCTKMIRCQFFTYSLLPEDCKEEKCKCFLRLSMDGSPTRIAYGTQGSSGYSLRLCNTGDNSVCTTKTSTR

## N=C(N)c1cccc(CC(NS(=O)(=O)c2cccc3cccnc23)C(=O)N2CCCCC2C(=O)O)c1 (racemic) [Compound 180]
thrombin
  Ki: 16 µM
Factor Xa
  Ki: 380 µM

## N=C(N)c1cccc(CC(NS(=O)(=O)c2cccc3cccnc23)C(=O)N2CCC(C(=O)O)CC2)c1 (racemic) [Compound 181]
thrombin
  Ki: 127 µM
Factor Xa
  Ki: 260 µM

## NCc1cccc(CC(NS(=O)(=O)c2ccc3ccccc3c2)C(=O)N2CCCCC2C(=O)O)c1 (racemic) [Compound 185, N-α-(2-Naphthylsulfonyl)-3-aminomethyl-(D,L)-phenylalanyl-(D,L)-pipecolic acid]
thrombin
  Ki: 50 µM
Factor Xa
  Ki: 140 µM

## NCc1cccc(CC(NS(=O)(=O)c2ccc3ccccc3c2)C(=O)N2CCC(C(=O)O)CC2)c1 (racemic) [Compound 186]
thrombin
  Ki: 0.5 µM
Factor Xa
  Ki: 230 µM
In vivo; iv
  LD50 at 168 h: 100 mg/kg
In vivo; po
  LD50 at 168 h: > 3000 mg/kg
[1]; plasma, po, 100 mg/kg
  concentration at 0.25 h: 996 ng/mL
  concentration at 0.5 h: 800 ng/mL
  concentration at 0.75 h: 769 ng/mL
  concentration at 1 h: 1250 ng/mL
  concentration at 1.5 h: 877 ng/mL
  concentration at 2 h: 619 ng/mL
  concentration at 3 h: 357 ng/mL
  concentration at 4 h: 328 ng/mL
  concentration at 5 h: 370 ng/mL
  concentration at 6 h: 326 ng/mL
[2]
  pharmacokinetic properties: improved pharmacokinetic properties
[2]; rat, plasma, iv, 1 mg/kg
  concentration at 2 min: 1840 ng/mL
  concentration at 5 min: 1260 ng/mL
  concentration at 10 min: 653 ng/mL
  concentration at 0.25 h: 426 ng/mL
  concentration at 0.5 h: 225 ng/mL
  concentration at 0.75 h: 205 ng/mL
  concentration at 1 h: 193 ng/mL
  concentration at 1.5 h: 53 ng/mL
  concentration at 2 h: 228 ng/mL
[3]; plasma, sc, 5 mg/kg
  concentration at 0.25 h: 251 ng/mL
  concentration at 0.5 h: 368 ng/mL
  concentration at 0.75 h: 444 ng/mL
  concentration at 1 h: 558 ng/mL
  concentration at 1.5 h: 629 ng/mL
  concentration at 2 h: 534 ng/mL
  concentration at 3 h: 533 ng/mL
  concentration at 4 h: 669 ng/mL
  concentration at 5 h: 455 ng/mL
  concentration at 6 h: 340 ng/mL

## CC1CCN(C(=O)C(Cc2cccc(C(=N)NO)c2)NS(=O)(=O)c2ccc3ccccc3c2)CC1 (racemic) [Compound 187, N-α-(2-Naphthylsulfonyl)-3-oxamidino-(D,L)-phenylalanine-4-methylpiperidide hydroiodide]
thrombin
  Ki: 2.8 µM
Factor Xa
  Ki: > 1000 µM

## N=C(NO)c1cccc(CC(NS(=O)(=O)c2ccc3ccccc3c2)C(=O)N2CCCCC2C(=O)O)c1 (racemic) [Compound 188, N-α-(2-Naphthylsulfonyl)-3-oxamidino-(D,L)-phenylalanyl-(D,L)-pipecolic acid hydroiodide]
thrombin
  Ki: 330 µM
Factor Xa
  Ki: 410 µM

## N=C(NO)c1cccc(CC(NS(=O)(=O)c2ccc3ccccc3c2)C(=O)N2CCC(C(=O)O)CC2)c1 (racemic) [Compound 189, N-α-(2-Naphthylsulfonyl)-3-oxamidino-(D,L)-phenylalanyl-isonipecotic acid hydroiodide]
thrombin
  Ki: 270 µM
Factor Xa
  Ki: 670 µM

## Nc1cccc(CC(NS(=O)(=O)c2ccc3ccccc3c2)C(=O)N2CCCCC2C(=O)O)c1 (racemic) [Compound 204]
thrombin
  Ki: 130 µM
Factor Xa
  Ki: 450 µM

## Nc1cccc(CC(NS(=O)(=O)c2ccc3ccccc3c2)C(=O)N2CCC(C(=O)O)CC2)c1 (racemic) [Compound 205]
thrombin
  Ki: 720 µM
Factor Xa
  Ki: 720 µM

## N=C(N)Nc1cccc(CC(NS(=O)(=O)c2ccc3ccccc3c2)C(=O)N2CCCCC2C(=O)O)c1 (racemic) [Compound 208, N-α-(2-Naphthylsulfonyl)-3-guanidino-(D,L)-phenylalanine-(D,L)-pipecolic acid hydrochloride]
thrombin
  Ki: 29 µM
Factor Xa
  Ki: 82 µM
In vivo; iv
  LD50 at 168 h: > 50 mg/kg
In vivo; po
  LD50 at 168 h: > 1000 mg/kg

## N=C(N)c1cccc(C[C@H](NS(=O)(=O)c2ccc3ccccc3c2)C(=O)N2CCC[C@H]2C(=O)O)c1 [Nα-2-naphthylsulfonyl-3-amidinophenylalanyl proline]
thrombin; in words
  inhibition of thrombin: surprisingly inhibits thrombin
Factor Xa; in words
  inhibition of factor Xa: does not selectively inhibit factor Xa
[1]; oral
  detection / concentration in plasma or absorption after oral administration: absorbed by the intestine
[2]
  pharmacokinetic properties: excellent pharmacokinetic properties
[3]; s.c.
  blood level after subcutaneous administration: a relatively high blood level is reached which is maintained in an anticoagulantly effective concentration for a prolonged period of time

## COC(=O)[C@H](Cc1cccc(C(=N)N)c1)NC(=O)CNS(=O)(=O)c1ccc(C)cc1 [TAPAM, Nα-tosylglycyl-3-amidinophenylalanine methyl ester, reference compound]
plasmin
  Ki: 160 µM
Factor XIIa
  Ki: 180 µM
tPA
  Ki: 27 µM
Glandular kallikrein
  Ki: 890 µM
Plasma kallikrein
  Ki: 15 µM
In vivo; iv
  LD50 at 168 h: 103 mg/kg
In vivo; po
  LD50 at 168 h: > 1000 mg/kg
